# Reference: ChEMBL document CHEMBL1201862, “PubChem BioAssay data set” (2004)
# The source made the active and inactive calls.
# What was measured:
# [1] = growth suppression of PTEN-null colon cells, dose response, cell-based, HCT116 PTEN knockout (AID 1047); type: functional;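 also: HCT116 colon tumor cells with PTEN knocked out; cells exposed to compound for 60 hours before readout; potency for loss of cell viability measured by luminescence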
# [2] = growth suppression of beta-catenin-knockout colon cells, dose response, cell-based, HCT116, human colon tumor (AID 1045); type: functional;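 also: HCT116 colon tumor cells with beta catenin knocked out; cells exposed to compound for 60 hours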
# Mu-type opioid receptor = Mu-type opioid receptor (Homo sapiens, UniProt P35372); assay: (§1) Counterscreen for agonists of heterodimerization of the mu 1 (OPRM1) and delta 1 (OPRD1) opioid receptors: Luminescence-based cell-based high throughput dose response assay to identify agonists of OPRM1 homodimerization.; type: functional
# Mu-type opioid receptor, sequence (P35372 whole entry): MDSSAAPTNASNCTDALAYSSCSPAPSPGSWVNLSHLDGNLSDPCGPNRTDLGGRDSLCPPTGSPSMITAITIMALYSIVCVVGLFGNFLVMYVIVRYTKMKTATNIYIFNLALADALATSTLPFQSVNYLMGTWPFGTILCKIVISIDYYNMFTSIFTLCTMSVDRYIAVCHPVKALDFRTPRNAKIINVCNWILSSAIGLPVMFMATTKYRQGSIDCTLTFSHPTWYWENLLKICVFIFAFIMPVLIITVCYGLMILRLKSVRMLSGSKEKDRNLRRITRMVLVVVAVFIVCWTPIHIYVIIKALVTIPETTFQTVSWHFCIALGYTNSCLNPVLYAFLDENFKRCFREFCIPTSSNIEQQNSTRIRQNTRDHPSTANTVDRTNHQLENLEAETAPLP
# [3] = biological target: 5-hydroxytryptamine receptor 5A (Homo sapiens, UniProt P47898); assay: Counterscreen for agonists of OPRM1-OPRD1 heterodimerization: luminescence-based cell-based high throughput dose response assay to identify agonists of 5-hydroxytryptamine (serotonin) 5A receptor (HTR5A). [Related pubchem assays (depositor defined):AID504326, AID504355, AID504692, AID504904, AID504905]; type: functional
# 5-hydroxytryptamine receptor 5A, sequence (P47898 whole entry): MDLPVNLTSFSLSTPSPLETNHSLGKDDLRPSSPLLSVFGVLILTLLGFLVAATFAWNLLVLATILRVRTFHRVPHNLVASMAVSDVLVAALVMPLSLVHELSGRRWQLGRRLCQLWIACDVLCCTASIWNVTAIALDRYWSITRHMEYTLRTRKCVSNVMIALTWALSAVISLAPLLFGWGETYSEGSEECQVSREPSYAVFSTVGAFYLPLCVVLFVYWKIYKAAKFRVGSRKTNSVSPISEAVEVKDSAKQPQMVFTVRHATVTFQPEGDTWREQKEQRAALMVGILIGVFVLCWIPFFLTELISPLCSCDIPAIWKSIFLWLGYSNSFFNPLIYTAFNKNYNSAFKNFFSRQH
# [4] = biological target: Delta-type opioid receptor (Homo sapiens, UniProt P41143); assay: as §1, with “of OPRD1” for “of OPRM1”, “homodimerization. [Related pubchem assays (depositor defined):AID504326, AID504355, AID504692, AID504904, AID504905]” for “homodimerization.”; type: functional
# Delta-type opioid receptor, sequence (P41143 whole entry): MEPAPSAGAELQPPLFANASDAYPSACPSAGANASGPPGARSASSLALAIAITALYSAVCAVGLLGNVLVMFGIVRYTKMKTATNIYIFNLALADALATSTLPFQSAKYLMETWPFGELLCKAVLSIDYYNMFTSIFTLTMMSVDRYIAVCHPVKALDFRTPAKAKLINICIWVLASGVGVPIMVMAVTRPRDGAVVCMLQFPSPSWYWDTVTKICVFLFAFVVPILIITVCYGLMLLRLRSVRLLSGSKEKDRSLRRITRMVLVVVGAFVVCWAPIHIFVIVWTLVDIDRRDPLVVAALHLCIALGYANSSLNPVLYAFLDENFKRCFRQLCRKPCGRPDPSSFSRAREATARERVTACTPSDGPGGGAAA
# [5] = CEM21 cell cytotoxicity, dose response, cytotoxicity control, plate reader, dry powder (AID 687026); type: functional, cell-based
# Phospholipase A2 = Phospholipase A2 (Homo sapiens, UniProt P04054); type: functional;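 also: confirmatory dose-response counterscreen on phospholipase A2, testing hits that came from an ultra-high-throughput screen for ATG4B inhibitors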
# Phospholipase A2, sequence (P04054 whole entry, the tested form may be a part): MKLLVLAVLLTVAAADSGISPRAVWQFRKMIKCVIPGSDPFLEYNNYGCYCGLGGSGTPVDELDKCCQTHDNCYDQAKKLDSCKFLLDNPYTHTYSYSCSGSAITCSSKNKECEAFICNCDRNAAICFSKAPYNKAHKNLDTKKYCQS
# [6] = ZM109 Env clade C HIV-1 fusion inhibitors, dose response, HeLa effector, CEM target cells, luciferase, cherry-pick (AID 652058); type: functional, cell-based
# [7] = inhibitors of clade B AD8 Env fusion, dose response, cell-based, cherry-pick (AID 652062); type: functional;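 also: luciferase signal from cell-cell fusion driven by HIV-1 clade B AD8 Env; potency is for inhibitors of fusion seen as a drop in luminescence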
# [8] = inhibitors of HIV Env-driven cell fusion, dose response, cherry-pick (AID 652057); type: functional, cell-based
# Cysteine protease ATG4B = Cysteine protease ATG4B (Homo sapiens, UniProt Q9Y4P1); type: functional;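 also: Fluorescence-based dose-response confirmation assay measuring inhibition of ATG4B activity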
# Cysteine protease ATG4B, sequence (Q9Y4P1 whole entry, the tested form may be a part): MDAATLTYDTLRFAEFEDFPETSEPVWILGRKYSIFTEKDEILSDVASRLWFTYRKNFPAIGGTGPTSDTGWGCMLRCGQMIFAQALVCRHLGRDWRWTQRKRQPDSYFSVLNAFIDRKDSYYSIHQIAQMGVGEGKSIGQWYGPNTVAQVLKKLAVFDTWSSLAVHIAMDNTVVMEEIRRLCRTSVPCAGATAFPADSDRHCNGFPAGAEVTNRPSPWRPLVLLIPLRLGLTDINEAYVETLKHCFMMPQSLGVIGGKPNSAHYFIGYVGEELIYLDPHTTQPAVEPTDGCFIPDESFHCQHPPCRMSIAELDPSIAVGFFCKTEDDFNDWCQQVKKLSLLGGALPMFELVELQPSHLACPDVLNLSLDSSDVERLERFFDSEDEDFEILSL
# [9] = HIV Env cell-cell fusion inhibitors, dose response, HIV entry, plate reader, dry powder (AID 687023); type: functional, cell-based
# Prothrombin = Prothrombin (Bos taurus, UniProt P00735); assay: thrombin inhibition, dose response, biochemical, fluorescence polarization, uHTS hits (AID 602369); type: functional
# [10] = biological target: 72 kDa type IV collagenase (Homo sapiens, UniProt P08253); assay: Dose Response validation of uHTS RPN11 inhibitor hits using a MMP-2 Fluorescence assay.; type: functional
# 72 kDa type IV collagenase, sequence (P08253 whole entry): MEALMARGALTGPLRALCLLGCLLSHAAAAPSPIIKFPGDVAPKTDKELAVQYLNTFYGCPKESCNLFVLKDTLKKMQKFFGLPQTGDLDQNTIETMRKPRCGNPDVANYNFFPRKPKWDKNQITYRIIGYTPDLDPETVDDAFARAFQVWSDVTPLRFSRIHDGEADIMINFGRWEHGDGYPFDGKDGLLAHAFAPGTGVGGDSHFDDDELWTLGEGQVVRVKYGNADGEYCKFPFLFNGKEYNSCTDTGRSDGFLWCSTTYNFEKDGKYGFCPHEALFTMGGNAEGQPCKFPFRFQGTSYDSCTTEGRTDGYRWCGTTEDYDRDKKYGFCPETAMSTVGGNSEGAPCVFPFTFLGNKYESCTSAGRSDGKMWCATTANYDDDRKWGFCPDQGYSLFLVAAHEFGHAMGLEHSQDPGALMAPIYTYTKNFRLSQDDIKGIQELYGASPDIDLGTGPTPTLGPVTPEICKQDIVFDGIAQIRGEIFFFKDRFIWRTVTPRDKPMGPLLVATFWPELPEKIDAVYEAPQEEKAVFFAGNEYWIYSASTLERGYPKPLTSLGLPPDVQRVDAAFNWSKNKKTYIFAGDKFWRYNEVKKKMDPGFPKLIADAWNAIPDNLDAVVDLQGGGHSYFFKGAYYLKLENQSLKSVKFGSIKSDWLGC
# [11] = biological target: 26S proteasome non-ATPase regulatory subunit 14 (Homo sapiens, UniProt O00487); assay: inhibition of proteasome subunit RPN11 – biochemical, fluorescence polarization, uHTS hits, confirmation (AID 602368); type: functional
# 26S proteasome non-ATPase regulatory subunit 14, sequence (O00487 whole entry): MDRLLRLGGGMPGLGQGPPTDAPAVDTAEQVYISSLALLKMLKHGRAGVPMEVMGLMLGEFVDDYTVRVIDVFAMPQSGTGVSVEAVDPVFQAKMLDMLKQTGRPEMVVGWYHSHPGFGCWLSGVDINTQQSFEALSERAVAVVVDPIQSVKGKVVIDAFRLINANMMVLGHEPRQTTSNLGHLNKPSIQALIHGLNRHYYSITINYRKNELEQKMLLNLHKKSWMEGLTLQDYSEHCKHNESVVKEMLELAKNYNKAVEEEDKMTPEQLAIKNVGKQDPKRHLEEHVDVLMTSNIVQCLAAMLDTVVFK
# [12] = biological target: T1, High affinity choline transporter 1 (Homo sapiens, UniProt Q9GZV3); assay: CHT inhibitors, dose response, cell-based, 5-point CRC, membrane potential dye (AID 504840); type: functional
# T1 sequence (Q9GZV3 whole entry): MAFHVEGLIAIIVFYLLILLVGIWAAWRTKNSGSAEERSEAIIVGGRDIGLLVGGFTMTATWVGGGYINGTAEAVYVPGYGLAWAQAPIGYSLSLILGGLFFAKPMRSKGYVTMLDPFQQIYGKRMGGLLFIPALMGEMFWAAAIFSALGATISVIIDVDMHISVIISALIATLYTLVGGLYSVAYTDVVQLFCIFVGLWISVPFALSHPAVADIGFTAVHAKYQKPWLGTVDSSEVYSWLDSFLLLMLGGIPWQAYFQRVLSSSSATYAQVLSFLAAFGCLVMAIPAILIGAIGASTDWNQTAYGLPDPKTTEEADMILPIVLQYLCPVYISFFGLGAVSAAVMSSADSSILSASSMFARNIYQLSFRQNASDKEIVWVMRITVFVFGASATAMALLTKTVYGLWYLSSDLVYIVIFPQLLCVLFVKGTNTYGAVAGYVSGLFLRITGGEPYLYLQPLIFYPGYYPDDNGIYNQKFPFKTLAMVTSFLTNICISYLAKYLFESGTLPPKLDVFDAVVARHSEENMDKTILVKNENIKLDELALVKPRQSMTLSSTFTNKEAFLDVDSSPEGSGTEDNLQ
# [13] = biological target: T1, High affinity choline transporter 1; assay: CHT inhibitors, dose response, cell-based, 10-point CRC, membrane potential dye (AID 588401); type: functional;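 also: membrane potential dye fluorescence of choline-evoked depolarization via CHT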
# [14] = biological target: DNA (cytosine-5)-methyltransferase 1 (Homo sapiens, UniProt P26358); assay: DNMT1 methyltransferase inhibitors, confirmation, biochemical, fluorescent molecular beacon (AID 602386); type: functional
# [15] = biological target: T2, Corticotropin-releasing factor receptor 2/Corticotropin-releasing factor-binding protein (Homo sapiens, UniProt P24387+Q13324); assay: activators of CRF receptor 2 with binding protein – uHTS hits, confirmation (AID 602473); type: functional; conditions: read-out: EC50_Mean
# T2 sequence (Q13324 whole entry): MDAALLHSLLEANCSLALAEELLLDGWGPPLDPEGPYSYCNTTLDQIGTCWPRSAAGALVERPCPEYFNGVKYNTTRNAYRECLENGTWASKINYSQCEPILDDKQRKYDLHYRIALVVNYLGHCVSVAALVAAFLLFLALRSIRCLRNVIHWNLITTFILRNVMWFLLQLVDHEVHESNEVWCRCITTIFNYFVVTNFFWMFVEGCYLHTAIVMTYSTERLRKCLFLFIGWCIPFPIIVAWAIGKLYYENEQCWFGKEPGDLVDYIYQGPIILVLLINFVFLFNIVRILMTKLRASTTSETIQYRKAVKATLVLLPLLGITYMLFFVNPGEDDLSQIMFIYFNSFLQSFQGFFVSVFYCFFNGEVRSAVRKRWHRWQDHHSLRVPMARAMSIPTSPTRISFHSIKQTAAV
# T2 sequence (P24387 whole entry): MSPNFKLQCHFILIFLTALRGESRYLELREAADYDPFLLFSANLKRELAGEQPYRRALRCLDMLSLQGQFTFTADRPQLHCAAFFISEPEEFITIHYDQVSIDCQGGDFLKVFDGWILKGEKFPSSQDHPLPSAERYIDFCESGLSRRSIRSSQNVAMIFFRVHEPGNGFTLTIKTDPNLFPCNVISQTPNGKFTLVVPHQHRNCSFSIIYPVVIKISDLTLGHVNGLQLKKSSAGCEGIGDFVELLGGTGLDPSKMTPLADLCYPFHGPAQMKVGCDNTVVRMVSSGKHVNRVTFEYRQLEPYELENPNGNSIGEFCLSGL
# [16] = Luminescence Cell-Based Dose Retest to Confirm Inhibitors of Cancer Stem Cells. [Related pubchem assays (depositor defined):AID2717, AID2721]; type: functional; conditions: Homo sapiens
# [17] = biological target: Sentrin-specific protease 6 (Homo sapiens, UniProt Q9GZR1); type: functional;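 also: Luminescence-based dose-response confirmatory assay of SENP6 inhibition, following up an ultra-high-throughput screen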
# Sentrin-specific protease 6, sequence (Q9GZR1 whole entry): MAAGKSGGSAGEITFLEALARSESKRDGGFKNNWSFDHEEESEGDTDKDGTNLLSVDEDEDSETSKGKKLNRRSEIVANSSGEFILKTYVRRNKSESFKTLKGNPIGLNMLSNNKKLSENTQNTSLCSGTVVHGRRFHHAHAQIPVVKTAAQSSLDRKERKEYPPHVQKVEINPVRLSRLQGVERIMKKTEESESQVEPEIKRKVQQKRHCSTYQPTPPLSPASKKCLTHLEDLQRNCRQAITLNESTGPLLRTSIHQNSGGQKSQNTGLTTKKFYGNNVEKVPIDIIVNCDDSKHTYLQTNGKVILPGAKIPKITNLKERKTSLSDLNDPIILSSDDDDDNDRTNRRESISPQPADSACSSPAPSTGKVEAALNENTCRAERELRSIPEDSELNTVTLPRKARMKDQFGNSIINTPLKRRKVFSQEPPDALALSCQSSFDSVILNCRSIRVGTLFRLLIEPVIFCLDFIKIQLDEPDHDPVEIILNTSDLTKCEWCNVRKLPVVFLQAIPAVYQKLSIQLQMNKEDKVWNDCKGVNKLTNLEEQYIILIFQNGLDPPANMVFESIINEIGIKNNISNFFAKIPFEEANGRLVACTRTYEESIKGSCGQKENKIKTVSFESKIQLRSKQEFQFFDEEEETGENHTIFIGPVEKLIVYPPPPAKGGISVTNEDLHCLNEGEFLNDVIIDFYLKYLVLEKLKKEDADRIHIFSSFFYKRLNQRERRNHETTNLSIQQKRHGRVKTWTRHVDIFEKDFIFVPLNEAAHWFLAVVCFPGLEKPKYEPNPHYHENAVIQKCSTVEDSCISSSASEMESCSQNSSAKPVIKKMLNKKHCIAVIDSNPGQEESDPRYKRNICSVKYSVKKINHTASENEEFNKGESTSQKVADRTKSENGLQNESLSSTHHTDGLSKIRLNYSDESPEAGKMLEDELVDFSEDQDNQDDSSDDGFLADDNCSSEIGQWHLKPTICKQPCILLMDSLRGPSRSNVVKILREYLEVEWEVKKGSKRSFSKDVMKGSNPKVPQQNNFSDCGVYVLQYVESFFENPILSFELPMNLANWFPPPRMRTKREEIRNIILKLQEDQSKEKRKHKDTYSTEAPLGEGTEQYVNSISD
# [18] = biological target: T3, Sentrin-specific protease 8 (Homo sapiens, UniProt Q96LD8); type: functional;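 also: luminescence read-out of SENP8 inhibition, dose-response confirmation following an ultra-high-throughput screen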
# T3 sequence (Q96LD8 whole entry): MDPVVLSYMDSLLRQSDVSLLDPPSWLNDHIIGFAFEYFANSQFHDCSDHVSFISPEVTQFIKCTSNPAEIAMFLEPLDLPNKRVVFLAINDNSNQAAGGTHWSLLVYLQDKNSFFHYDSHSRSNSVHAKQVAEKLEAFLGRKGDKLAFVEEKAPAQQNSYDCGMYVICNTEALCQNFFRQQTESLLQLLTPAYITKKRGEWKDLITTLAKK
# Caspase-3 = biological target: T4, Caspase-3 (Homo sapiens, UniProt P42574); type: functional;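 also: Dose-response selectivity test against caspase-3 for candidate inhibitors of sentrin-specific proteases (SENPs)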
# T4 sequence (P42574 whole entry): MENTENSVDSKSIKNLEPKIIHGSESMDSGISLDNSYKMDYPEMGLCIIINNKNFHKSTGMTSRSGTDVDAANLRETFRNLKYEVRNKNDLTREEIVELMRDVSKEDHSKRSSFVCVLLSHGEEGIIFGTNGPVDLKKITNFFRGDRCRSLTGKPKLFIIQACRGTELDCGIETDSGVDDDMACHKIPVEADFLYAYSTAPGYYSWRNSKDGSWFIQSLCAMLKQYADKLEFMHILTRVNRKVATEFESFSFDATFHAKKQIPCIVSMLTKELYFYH
# [19] = biological target: Sentrin-specific protease 7 (Homo sapiens, UniProt Q9BQF6); type: functional;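 also: Luminescence-based dose-response confirmation of ultra-high-throughput screening hits, measuring inhibition of SENP7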
# Sentrin-specific protease 7, sequence (Q9BQF6 whole entry): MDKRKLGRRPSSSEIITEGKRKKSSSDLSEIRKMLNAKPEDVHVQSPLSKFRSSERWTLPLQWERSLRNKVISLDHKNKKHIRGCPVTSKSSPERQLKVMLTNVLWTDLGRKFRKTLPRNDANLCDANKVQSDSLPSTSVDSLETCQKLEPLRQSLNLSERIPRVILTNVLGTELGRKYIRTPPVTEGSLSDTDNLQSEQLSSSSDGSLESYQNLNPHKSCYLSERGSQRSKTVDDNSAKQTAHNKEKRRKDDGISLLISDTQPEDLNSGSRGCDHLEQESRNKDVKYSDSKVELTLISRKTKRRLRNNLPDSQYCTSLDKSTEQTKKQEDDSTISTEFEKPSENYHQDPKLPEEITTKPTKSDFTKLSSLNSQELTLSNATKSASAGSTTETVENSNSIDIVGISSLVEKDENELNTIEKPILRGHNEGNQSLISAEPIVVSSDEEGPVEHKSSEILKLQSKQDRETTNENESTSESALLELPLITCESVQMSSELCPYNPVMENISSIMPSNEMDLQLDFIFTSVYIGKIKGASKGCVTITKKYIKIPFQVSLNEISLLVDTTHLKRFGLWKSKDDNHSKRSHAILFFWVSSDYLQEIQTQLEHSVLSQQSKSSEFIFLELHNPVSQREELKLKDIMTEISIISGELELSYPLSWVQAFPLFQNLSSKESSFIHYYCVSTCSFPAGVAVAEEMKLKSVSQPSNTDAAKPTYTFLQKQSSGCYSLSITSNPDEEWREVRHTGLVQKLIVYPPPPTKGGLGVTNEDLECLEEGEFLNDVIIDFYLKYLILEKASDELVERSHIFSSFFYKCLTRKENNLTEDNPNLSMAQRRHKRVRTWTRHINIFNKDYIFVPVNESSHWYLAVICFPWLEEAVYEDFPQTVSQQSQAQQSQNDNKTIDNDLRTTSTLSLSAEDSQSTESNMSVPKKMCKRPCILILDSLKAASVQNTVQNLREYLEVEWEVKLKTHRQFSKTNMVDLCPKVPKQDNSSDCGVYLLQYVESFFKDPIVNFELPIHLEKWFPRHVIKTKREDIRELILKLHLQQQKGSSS
# [20] = biological target: Apoptotic protease-activating factor 1 (Homo sapiens, UniProt O14727); assay: SAR analysis of small molecule Activators of Apaf-1 in a Fluorescent assay.; type: functional; conditions: read-out: EC50_Mean;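 also: caspase-3 cleavage of fluorogenic Rh110 DEVD substrate downstream of apoptosome activation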
# [21] = biological target: Ras and Rab interactor 1/Tyrosine-protein kinase ABL1 (Homo sapiens, UniProt P00519+Q13671); type: functional;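 also: biochemical TR-FRET dose-response test measuring inhibition of binding between Rin1 and Abl proteins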
# [22] = biological target: Potassium voltage-gated channel subfamily KQT member 2 (Rattus norvegicus, UniProt O88943); assay: KCNQ2 potassium channel inhibitors, dose response, cell-based, automated electrophysiology, set II, rat KCNQ2 (AID 588637); type: functional
# Escherichia coli [23] = assay: microbe, parasite or virus in culture
# Escherichia coli [24] = assay: microbe, parasite or virus in culture; remark: listed apart in the source
# Streptococcus = assay: Group A Streptococcus viability loss, dose response, counter-screen for streptokinase expression inhibitor project, luminescence, BacTiterGlo (AID 1915); type: functional, organism-based;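 also: potency for reduction of bacterial viability or growth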
# [25] = biological target: Low molecular weight phosphotyrosine protein phosphatase (Homo sapiens, UniProt P24666); type: functional; conditions: read-out: IC50_Mean;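 also: Dose-response confirmation assay measuring inhibition of LMPTP enzyme activity by fluorescence intensity read-out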
# Low molecular weight phosphotyrosine protein phosphatase, sequence (P24666 whole entry): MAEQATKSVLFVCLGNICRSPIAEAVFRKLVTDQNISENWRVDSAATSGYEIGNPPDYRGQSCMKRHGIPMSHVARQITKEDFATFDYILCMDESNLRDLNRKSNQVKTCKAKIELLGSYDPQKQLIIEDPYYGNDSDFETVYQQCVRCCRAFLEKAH
# Streptokinase A = biological target: T5, Streptokinase A (Streptococcus pyogenes serotype M1, UniProt P10520); assay: S. pyogenes streptokinase expression inhibitors, potency, dose response, plasminogen activation absorbance, OD405 (AID 1914); type: functional, Streptococcus pyogenes M1 GAS;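 also: secreted streptokinase activity via plasminogen activation per viability signal from cell pellet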
# T5 sequence (P10520 whole entry): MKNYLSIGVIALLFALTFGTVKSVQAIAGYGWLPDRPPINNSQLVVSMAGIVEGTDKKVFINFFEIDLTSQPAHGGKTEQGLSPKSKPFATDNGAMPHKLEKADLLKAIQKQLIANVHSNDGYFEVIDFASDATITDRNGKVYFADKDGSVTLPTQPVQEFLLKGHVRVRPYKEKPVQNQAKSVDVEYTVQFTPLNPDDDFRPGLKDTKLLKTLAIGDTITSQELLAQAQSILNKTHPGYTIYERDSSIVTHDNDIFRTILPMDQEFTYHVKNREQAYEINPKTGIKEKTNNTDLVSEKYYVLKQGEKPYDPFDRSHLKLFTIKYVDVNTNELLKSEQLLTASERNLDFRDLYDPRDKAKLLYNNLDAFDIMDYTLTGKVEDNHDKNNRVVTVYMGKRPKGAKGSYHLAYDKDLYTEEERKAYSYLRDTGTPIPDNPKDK
# [26] = tested on: Streptococcus sp. 'group A'; assay: growth inhibition of control SK(-) GAS strain, dose response, counter-screen for streptokinase expression inhibitor project, luminescence, kanamycin, BacTiterGlo, confirmation (AID 1900); type: functional, organism-based
smiles,measurement,setting,value
COc1ccc2[nH]c3c(=O)n(/N=C/[C@H]4C(C)C=C(C)CC4C)c(=O)[nH]c3c2c1 (stereo partly drawn),EC50,[1],30.5 µM (active)
same,EC50,[2],35.4 µM (active)
same,EC50,Mu-type opioid receptor,> 92.5 µM (inactive)
same,EC50,[3],> 92.5 µM (inactive)
same,EC50,[4],> 92.5 µM (inactive)
CCOc1ccc(C(=O)C2CCN(CC(=O)Nc3ccccc3N3CCOCC3)CC2)cc1,AC50,[5],> 70 µM (inactive)
same,IC50,Phospholipase A2,11.9 µM (active)
same,AC50,[6],10.8 µM (active)
same,AC50,[7],0.94 µM (active)
same,AC50,[8],3.34 µM (active)
same,IC50,Cysteine protease ATG4B,13.2 µM (active)
same,AC50,[9],10.4 µM (active)
CN(C)CCCN/C=C1\C(=O)NC(=O)N(CCc2ccccc2)C1=O,IC50,Prothrombin,35.1 µM (active)
same,IC50,[10],> 100 µM (inactive)
same,IC50,[11],28.7 µM (active)
CCN(CC)CCCNC(=O)c1ccccc1NC(=O)C1=CSCCO1,IC50,[12],4.48 µM (active)
same,IC50,[13],3.57 µM (active)
COc1ccc(NS(=O)(=O)c2ccc(O)c(NC(=O)c3cc4c(C)nn(-c5ccc(F)cc5)c4s3)c2)cc1,IC50,[14],6.92 µM (active)
same,EC50,Mu-type opioid receptor,> 92.5 µM (inactive)
same,EC50,[3],> 92.5 µM (inactive)
same,EC50,[15],> 53 µM (inactive)
same,EC50,[4],> 92.5 µM (inactive)
same,AC50,[16],2.11 µM (active)
Cc1nnsc1NC(=O)OCc1ccccc1Cl,IC50,[17],45.6 µM (active)
same,IC50,[18],52.7 µM (active)
same,IC50,Caspase-3,21.4 µM (active)
same,IC50,[19],13 µM (active)
CCN(CC)CCCNC(=O)c1cn(CC)c2ccc(S(=O)(=O)N3CCc4ccccc4C3)cc2c1=O,IC50,[12],4.17 µM (active)
same,IC50,[13],2.67 µM (active)
CCCCCCC1CC(Cc2c(C)[nH]c3ccccc23)C(=O)O1 (stereo not drawn),EC50,[20],> 100 µM (inactive)
CCOC(=O)CCCCCC(=O)Nc1ccc2c(c1)CC(=O)N([C@H](C)CO)C[C@@H](C)[C@H](CN(C)Cc1ccc3c(c1)OCO3)O2,IC50,[21],30.8 µM (inactive)
CN(C)S(=O)(=O)c1ccc(N2CCCC2)c(C(=O)NNC(=O)c2ccc(Br)cc2)c1,IC50,[22],3.72 µM (active)
CN(C/C=C/c1ccccc1[N+](=O)[O-])Cc1ccccc1,AC50,Escherichia coli [23],42.7 µM (active)
Cc1ccccc1-c1nnc(SCc2ccccc2F)o1,IC50,[17],21.9 µM (active)
same,IC50,[18],45.1 µM (active)
same,IC50,Caspase-3,29.1 µM (active)
same,IC50,[19],6.14 µM (active)
COC(=O)c1sc2nc(CSc3ccc(Br)cc3)[nH]c(=O)c2c1C,IC50,Prothrombin,30 µM (active)
same,IC50,[10],> 100 µM (inactive)
same,IC50,[11],26.6 µM (active)
CCc1ccccc1NC(=O)CNC1CCCCC1.[O-][Cl+3]([O-])([O-])O,AC50,Escherichia coli [24],22.6 µM (active)
same,AC50,Escherichia coli [23],76.7 µM (active)
CCn1cc(C(=O)O)c(=O)c2cc(F)c(N3CCN(C(=S)NC(=O)c4cc(OC)cc(OC)c4)CC3)cc21,EC50,Streptococcus,30.2 µM (active)
same,IC50,[25],1.47 µM (active)
same,EC50,Streptokinase A,> 150 µM (not active)
same,EC50,[26],2.89 µM (active)
O=C(O)c1cc(N/N=C2/CC(c3ccccc3)Oc3ccccc32)ccc1Cl (stereo not drawn),IC50,Phospholipase A2,7.77 µM (active)
same,IC50,Cysteine protease ATG4B,7.53 µM (active)
